Source: article PMC12909347, “Disconnect between in vitro and in vivo efficacy of the MPS1 inhibitor NTRC 0066-0 against glioblastoma” (Cellular Oncology, 2026)

Tests used:
[1] = tested on: GBM cells; experiment: Incucyte caspase-3/7 apoptosis assay; format: cell-based, human; conditions: three serum-cultured GBM cell lines, increasing concentrations
Method: For the apoptosis assay, cells were plated in a 96-wells plate at low cell densities (500–1000 cells/well) and allowed to adhere overnight under standard culture conditions (37 °C, 5% CO₂). After 24 h, cells were exposed to different concentrations of NTRC0066-0. Apoptosis was measured using the Incucyte® Caspase-3/7 Dye for Apoptosis (Sartorius AG, Göttingen, Germany), which was added at a final concentration of 2.5 µM. As a positive control for the induction of Caspase 3/7-mediated apoptosis, cells were treated with a combination of S63845 and navitoclax (final concentrations 3 µM and 1.5 µM, respectively). Apoptotic cell death was assessed in real time with the Incucyte® S3 system (Sartorius AG). The Incucyte® was configured to capture phase-contrast images using a 10x objective lens. Data were collected and analyzed using the Incucyte® S3 software. Fluorescence signal confluence was quantified and normalized to the total phase-contrast confluence in each well to take variations in cell density into account. Curves were plotted using GraphPad Prism v10.3 (GraphPad Software).

[2] = Pharmacokinetics and brain penetration in Abcb1a/b;Abcg2-/- mice; format: in vivo; conditions: for Plasma AUC, Abcb1a/b;Abcg2-/- vs WT mice: 10 mg/kg
Method: (§1) The pharmacokinetics of NTRC 0066-0 were analyzed in wild-type (WT), Abcb1a/b^−/−, Abcg2^−/−, Abcb1a/b^−/−;Abcg2^−/− and Abcb1a/b^−/−;Abcg2^−/−;Abcc4^−/− FVB mice. All knockout mice strains have been developed at the Netherlands Cancer Institute. For i.v. administration, NTRC0066-0 was formulated in DMSO: Cremophor EL: saline (1:1:8 v/v) and injected at a dose of 5 mg/kg. For i.p and oral administration, NTRC0066-0 was administered at 5, 10 or 20 mg/kg as indicated. Serial blood sampling was done by tail vein bleeding at specific time points. At terminal time points, blood was drawn by cardiac puncture followed by tissue collection. Plasma was obtained from whole blood by centrifugation (5 min, 5,000 rpm, 4 °C) and tissues were weighed and homogenized using a FastPrep®-24 (MP-Biomedicals, NY) in 1% (w/v) bovine serum albumin (Sigma-Aldrich) in water.
(§2) NTRC 0066-0 was extracted from in vitro and in vivo samples using liquid–liquid extraction with diethyl ether. Another MPS-1 inhibitor, Compound 5 (Cpd-5), was added to the samples as an internal standard. The dried organic phase was reconstituted in 30% methanol in water (v/v). Samples were measured using an LC-MS/MS system comprising an UltiMate 3000 LC Systems (Dionex, Sunnyvale, CA) and an API 4000 mass spectrometer (Sciex, Framingham, MA). Samples were injected on to a Securityguard C18 pre-column (Phenomenex, Utrecht, The Netherlands) connected to a ZORBAX Extend-C18 column (Agilent, Santa Clara, CA). Elution was done at a flow rate of 0.2 mL/min using a 5 min gradient from 20% to 95% B (mobile phase A was 0.1% HCOOH in water (v/v) and mobile phase B was methanol). 95% B was maintained for 3 min followed by re-equilibration at 20% B. Multiple reaction monitoring parameters were 566.2/391.4 (NTRC0066-0) and 581.6/397.0 (internal standard). Analyst® 1.6.2 software (Sciex) was used for system control and data analysis.
PK solver was used to determine pharmacokinetic parameters. The standard error of the oral bioavailability was calculated using the formula below: […]

[3] = tested on: P-gp; experiment: Brain penetration in Abcb1a/b-/- mice; format: in vivo; conditions: 1 h after 5 mg/kg i.v.
Method: as §1, §2

[4] = Tolerability of oral dosing schedules in Abcb1a/b;Abcg2-/- mice; format: in vivo
[5] = biological target: T1, BCRP (Mus musculus, UniProt Q7TMS5); experiment: Brain penetration in Abcg2-/- mice; format: in vivo; conditions: 1 h after 5 mg/kg i.v.
T1 construct: from tissue; host or cells: blood-brain barrier / brain of FVB mice (WT versus Abcg2-/-)
T1 sequence (Q7TMS5 1-657): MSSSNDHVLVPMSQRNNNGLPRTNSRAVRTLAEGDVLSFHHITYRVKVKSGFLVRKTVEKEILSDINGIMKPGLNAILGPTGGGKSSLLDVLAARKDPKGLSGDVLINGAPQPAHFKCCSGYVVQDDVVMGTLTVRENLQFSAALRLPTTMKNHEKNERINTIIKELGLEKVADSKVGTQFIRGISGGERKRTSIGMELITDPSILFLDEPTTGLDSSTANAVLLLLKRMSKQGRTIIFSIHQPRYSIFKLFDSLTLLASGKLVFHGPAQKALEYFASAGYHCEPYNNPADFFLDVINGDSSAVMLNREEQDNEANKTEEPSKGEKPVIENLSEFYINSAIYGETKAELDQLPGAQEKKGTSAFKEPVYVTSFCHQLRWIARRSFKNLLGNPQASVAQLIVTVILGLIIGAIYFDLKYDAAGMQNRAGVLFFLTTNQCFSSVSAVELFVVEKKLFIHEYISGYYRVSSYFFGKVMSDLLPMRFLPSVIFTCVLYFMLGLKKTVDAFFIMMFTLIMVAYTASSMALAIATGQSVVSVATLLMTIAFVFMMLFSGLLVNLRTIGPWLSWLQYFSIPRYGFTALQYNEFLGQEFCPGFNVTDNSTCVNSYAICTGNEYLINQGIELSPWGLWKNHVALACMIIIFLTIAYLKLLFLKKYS
Method: as §1
NTRC 0066-0 was extracted from in vitro and in vivo samples using liquid–liquid extraction with diethyl ether. Another MPS-1 inhibitor, Compound 5 (Cpd-5), was added to the samples as an internal standard. The dried organic phase was reconstituted in 30% methanol in water (v/v). Samples were measured using an LC-MS/MS system comprising an UltiMate 3000 LC Systems (Dionex, Sunnyvale, CA) and an API 4000 mass spectrometer (Sciex, Framingham, MA). […]

[6] = Abcb1a/b;Abcg2-/-, i.p. 10 mg/kg
[7] = Abcb1a/b;Abcg2-/-, p.o. 10 mg/kg

With `CCc1cccc(CC)c1NC(=O)c1ccn2c1CCc1cnc(Nc3ccc(N4CCN(C)CC4)cc3OC)nc1-2` [NTRC 0066-0] as the compound, how does the “Induction of apoptosis (caspase 3/7 activation)” value [1] read?
Its value is “did not induce apoptosis”.

What about the “Lowest plasma trough concentration” value ([2]; 5 mg/kg p.o. morning + 10 mg/kg p.o. about 8 h later, 7 days (5/10 mg/kg b.i.d.x7d)) of the same compound?
Its value is “above 20 nM”.

And the “Brain concentration vs threshold level of in vitro efficacy” value ([2]; 1, 4, 8 and 24 h after 20 mg/kg p.o.)?
The value was “remained well above the threshold level of in vitro efficacy”.

What about the “Concentration at 24 h, Abcb1a/b;Abcg2-/- vs WT mice” value ([2]; 24 h after 10 mg/kg) of the same compound?
Its value is “about 5 fold”.

What about the Plasma concentration ([2]; 24 h after 20 mg/kg p.o.) of the same compound?
Its Plasma concentration is 6 nM.

And the “Brain penetration (brain vs plasma)” value ([2]; Abcb1a/b;Abcg2-/- mice)?
The value was 20 fold.

And the Brain-plasma ratio ([2]; Abcb1a/b;Abcg2-/- mice)?
Its Brain-plasma ratio is “above 20”.

And the “Oral bioavailability (relative to i.p.)” value ([2]; Abcb1a/b;Abcg2-/- mice)?
Its value is “about 50%”.

What about the “Brain concentration compared to Abcb1a/b-/- mice” value ([2]; Abcb1a/b;Abcg2-/- mice, 1 h after 5 mg/kg i.v.) of the same compound?
Its value is “did not display further increased”.

And the Brain-to-plasma ratio ([2]; Abcb1a/b;Abcg2-/- mice, 24 h after 10 mg/kg p.o. or i.p.)?
The Brain-to-plasma ratio was “approximately 20”.

What about the Cmax [2, 6] of the same compound?
Its Cmax is 1700 ± 160 nM.

And the MRT [2, 6]?
Its MRT is 4.3 ± 0.4 h.

What about the t1/2 [2, 6] of the same compound?
Its t1/2 is 3.4 ± 0.4 h.

And the tmax [2, 6]?
Its tmax is 0.8 ± 0.3 h.

And the “Plasma AUCi.p.” value ([2]; Abcb1a/b;Abcg2-/-, i.p. 10 mg/kg, 0-∞)?
Its value is 11,000 ± 2200 nM.h.

What about the Cmax [2, 7] of the same compound?
Its Cmax is 550 ± 52 nM.

What about the MRT [2, 7] of the same compound?
The MRT was 5.2 ± 0.5 h.

What about the t1/2 [2, 7] of the same compound?
The t1/2 was 3.6 ± 0.2 h.

What about the tmax [2, 7] of the same compound?
Its tmax is 3.3 ± 1.5 h.

What about the “F (bioavailability)” value ([2]; Abcb1a/b;Abcg2-/-, p.o. 10 mg/kg relative to i.p.) of the same compound?
Its value is 43 ± 11%.

And the “Plasma AUCp.o.” value ([2]; Abcb1a/b;Abcg2-/-, p.o. 10 mg/kg, 0-∞)?
Its value is 4.7 ± 0.71 µM·h.

What about the “Plasma AUC, Abcb1a/b;Abcg2-/- vs WT mice” value ([2]; after i.p. dosing) of the same compound?
The value was “about 4 fold”.

What about the “Plasma AUC, Abcb1a/b;Abcg2-/- vs WT mice” value ([2]; after oral dosing) of the same compound?
Its value is roughly 3 fold.

What about the “Brain concentration compared to WT mice” value [3] of the same compound?
Its value is “markedly increased”.

And the “Brain-plasma ratio compared to WT mice” value [3]?
The value was “markedly increased”.

What about the “Plasma concentration compared to WT mice” value [3] of the same compound?
Its value is “similar”.

What about the Tolerability of schedule ([4]; 5 mg/kg p.o. morning + 10 mg/kg p.o. about 8 h later, 7 consecutive days) of the same compound?
The Tolerability of schedule was “could safely administer”.

And the Tolerability of schedule ([4]; 20 mg/kg p.o. every other day for 11 days (q.2d.x11d))?
Its Tolerability of schedule is “could safely be given”.

And the “Plasma and brain concentrations compared to WT mice” value [5]?
Its value is “no differences”.
